Data from PubChem BioAssay AID489035 (Sanford-Burnham Center for Chemical Genomics, 2010).
Activity calls are given as the source filed them. No rule for the calls is given here.

What follows are compounds tested on Jurkat NF-kB reporter, TCR-induced, luciferase luminescence (assay: T-cell NF-kB luciferase reporter inhibition – Jurkat cells, luminescence, dose response (AID 489035)).

| SMILES | IC50 |
| --- | --- |
| COc1ccc(CS(=O)/C(Cl)=C(/Cl)C(=O)Nc2ccc(OC)nc2)cc1 (stereo not given) | 0.54 µM |
| Nc1nc2n[nH]nc2c(=O)[nH]1 | > 80 µM (inactive) |
| COC(=O)Nc1ccc(S(=O)(=O)N2CCCc3ccccc32)cc1 | > 80 µM (inactive) |
| COc1cc2nc(CN3CC=C(c4ccccc4)CC3)[nH]c(=O)c2cc1OC | > 80 µM (inactive) |
| COc1cc(NS(C)(=O)=O)ccc1Nc1c2ccccc2nc2ccccc12 | 9.5 µM |
| COc1ccc(C2=Nn3c(nnc3-c3ccccc3OC)SC2)cc1OC1CCCC1 | 15.3 µM |
| COc1ccc(/C=c2/sc3n(c2=O)C(c2ccccc2OC)C2=C(N=3)c3ccccc3CC2)cc1O (stereo not given) | 22.6 µM (inactive) |
| Cc1ccc(C(=O)c2cc([N+](=O)[O-])ccc2N2CCCCC2)cc1 | > 80 µM (inactive) |
| CC(=O)O[C@H]1C(=O)[C@@]2(C)[C@H]([C@H](OC(=O)c3ccccc3)[C@]3(O)C[C@H](OC(=O)[C@H](O)[C@@H](NC(=O)c4ccccc4)c4ccccc4)C(C)=C1C3(C)C)[C@]1(OC(C)=O)CO[C@@H]1C[C@@H]2O | 11 µM |
| C[C@]12CC[C@@H]3c4cc(O)c(O)cc4CC[C@H]3[C@@H]1CC[C@@H]2O | 4.76 µM |
| CCCCC(=O)NC(c1ccc(Cl)cc1)c1ccc2cccnc2c1O (stereo not given) | 8.39 µM |
| COC(=O)[C@]12OC[C@]34C([C@@H](O)[C@@H]1O)[C@]1(C)CC(=O)C(O)=C(C)[C@@H]1C[C@H]3OC(=O)[C@H](O)[C@@H]24 (stereo not given in full) | < 0.16 µM |
| O=C(N/N=C/c1ccccc1Cl)c1[nH]c2ccc(Br)cc2c1-c1ccccc1 | 6.27 µM |
| CCCC(=O)NC(c1ccc(N(C)C)cc1)c1ccc2cccnc2c1O (stereo not given) | 6.58 µM |
| COc1ccc(Br)cc1/C(C)=N/NC1=NCCN1 | > 80 µM (inactive) |
| CCOc1ccc(N(C)S(=O)(=O)c2ccc(-c3cc(C)no3)s2)cc1 | > 80 µM (inactive) |
| CCCCOc1ccccc1C1CC(=O)NC2=C1C(=O)CCC2 (stereo not given) | > 80 µM (inactive) |
| CC(=O)Nc1ccc(S(=O)(=O)N2c3ccc(F)cc3CCC2C)cc1 (stereo not given) | 7.46 µM |
| Cc1csc2sc(-c3ccnc(SCC(=O)NCc4ccccc4)n3)c(C)c12 | 17 µM |
| CC(C)(C)c1csc(Sc2ccc([N+](=O)[O-])cn2)n1 | 3.24 µM |
| Cc1cc(=O)oc2cc(OCC3CC(c4ccccc4Cl)=NO3)ccc12 (stereo not given) | > 80 µM (inactive) |
| COC(=O)C1=C(CN2CCCc3ccccc32)NC(=O)NC1c1ccc(F)cc1 (stereo not given) | 1.01 µM |
| CCOC(=O)c1c(C)[nH]c(C(=O)N/N=C/c2ccc(Br)cc2)c1C | 9.36 µM |
| CCN(CC)S(=O)(=O)c1ccc(NC(=O)c2ccc(CN3CCOCC3)cc2)cc1 | > 80 µM (inactive) |

| SMILES | IC50 |
| --- | --- |
| O=C(N=Nc1c(O)[nH]c2ccc(Br)cc12)c1ccccc1-n1cccc1 | 50.2 µM (inactive) |
| CC1=NNC(=O)/C1=C\c1cn(-c2ccccc2)nc1-c1ccc(Cl)cc1 | 1.13 µM |
| O=C(N[C@@H](Cc1ccccc1)C(=O)CCl)OCc1ccccc1 | 0.54 µM |
| CCO[C@H]1OC(C(=O)NCc2nc3ccccc3[nH]2)=C[C@@H](C2CC2)[C@@H]1CCCO | > 80 µM (inactive) |
| O=C(Nc1ccc(Oc2cccnc2)nc1)c1ccc(C(F)(F)F)cc1 | > 80 µM (inactive) |
| Cc1c(C(=O)N/N=C/c2c(O)ccc3ccccc23)nnn1-c1nonc1N | > 80 µM (inactive) |
| CCCCCCCCCn1c2c(c(=N)c3c1CCC3)CCCC2 | 3.4 µM |
| COc1ccc(NC(=O)/C(Cl)=C(/Cl)S(=O)Cc2ccc(C)cc2)cn1 (stereo not given) | 0.32 µM |
| COC(=O)c1nn(-c2ccc3c(c2)CCN3C(C)=O)cc1O | 1.14 µM |
| COc1cc(/C=C2/SC(=Nc3ccc(O)cc3)NC2=O)ccc1O | 10.6 µM |
| O=C(N/N=C/c1c(O)ccc2ccccc12)c1ccc(Br)o1 | 60.7 µM (inactive) |
| COc1cc(C(=O)N/N=C/c2cc([N+](=O)[O-])cs2)cc(OC)c1OC | > 80 µM (inactive) |
| COc1cccc(/C=N/Nc2ncnc3scc(-c4ccccc4)c23)c1O | 1.26 µM |
| CCc1ccc(/C=N/NC(=O)c2cc(C3CC3)nc3ccccc23)s1 | 20 µM (inactive) |
| CCn1c(C)cc(C(=O)CN2C(=O)c3ccccc3S2(=O)=O)c1C | 1.68 µM |
| Cc1c(C(=O)OC2CCCC2)[nH]c2c1C(=O)CC(c1ccco1)C2 (stereo not given) | > 80 µM (inactive) |
| CSc1nc(N(C)NC(=O)c2cccc(C)c2)c2ccccc2n1 | 27.8 µM (inactive) |
| O=C1C=CC(O)(c2cc(=O)c3c(O)cc(O)cc3o2)C=C1 | 2.21 µM |
| COC(=O)c1[nH]c2ccc(Br)cc2c1NC(=O)CN1CCN(C2CCCCC2)CC1 | 4.56 µM |
| CCC(=O)N1c2ccc(S(=O)(=O)N3CCN(c4ccc([N+](=O)[O-])cc4)CC3)cc2CC1C (stereo not given) | > 80 µM (inactive) |
| CC1C/C(=C/c2ccncc2)C(=O)/C(=C/c2ccncc2)C1 (stereo not given) | 1.39 µM |
| CSc1ccc(COC(=O)c2cc([N+](=O)[O-])ccc2N2CCOCC2)cc1 | > 80 µM (inactive) |
| CCC/C(O)=C1\C(=O)CC(C)(C)CC1=Nc1ccc(OC)cc1OC | > 80 µM (inactive) |
| O=c1cc(-c2ccccc2)[nH]c2cc(Cl)ccc12 | 18.8 µM |

| SMILES | IC50 |
| --- | --- |
| COc1cccc2sc(Nc3nnc(-c4ccccc4Cl)o3)nc12 | > 80 µM (inactive) |
| COc1cccc(CN(C)C(=O)c2cc(COc3ccc4ncccc4c3)on2)c1 | 12.5 µM |
| Cc1nc2ccccc2c2c1CC(C(C)(Cl)Br)O2 (stereo not given) | > 80 µM (inactive) |
| COc1ccc(C[C@H](N)C(=O)N[C@H]2[C@@H](O)[C@H](n3cnc4c(N(C)C)ncnc43)O[C@@H]2CO)cc1 | 0.96 µM |
| CCCC[C@@H](C)C[C@@H](C)C(=O)N(C)[C@@H](CC(C)C)C(=O)N[C@H](C(=O)N(C)[C@H](C(=O)N1C[C@@H](O)C[C@H]1C(=O)N1C(=O)C=C[C@@H]1C)C(C)C)C(C)OC(C)=O (stereo not given in full) | 4.87 µM |
| Cc1nn(C)c(C)c1CN(Cc1nc(CCC(C)C)no1)C(C)C | > 80 µM (inactive) |
| Cc1ccc(NC(=O)CSc2nc(-c3ccco3)cc(C(F)(F)F)n2)cc1C | > 80 µM (inactive) |
| N#Cc1ccc(-c2cccs2)nc1SCc1cccnc1 | > 80 µM (inactive) |
| O=C(Nc1ccc([N+](=O)[O-])cc1)Nc1ccon1 | > 80 µM (inactive) |
| CCOC(=O)c1ccc(NC(=O)Cn2cnc3cc(C)c(C)cc32)cc1 | > 80 µM (inactive) |
| O=C(Nc1ccc(C(F)(F)F)cc1)c1cccn(Cc2ccc3c(c2)OC(F)(F)O3)c1=O | 17.2 µM |
| CCCCCCCOc1ccc(OC(=O)c2ccncc2)cc1 | > 80 µM (inactive) |
| COc1cc2c(c(OC)c1OC)-c1ccc(OC)c(=O)cc1[C@@H](NC(C)=O)CC2 | > 80 µM (inactive) |
| COc1ccc(NC(=O)/C(Cl)=C(/Cl)S(=O)Cc2ccc(Cl)cc2)cn1 (stereo not given) | 0.27 µM |
| O=C1CC(c2cccc(Br)c2)c2cc3c(cc2N1)CCC3 (stereo not given) | 63.9 µM (inactive) |
| Cc1c(C(=O)OCC(C)C)[nH]c2c1C(=O)CC(c1cccs1)C2 (stereo not given) | > 80 µM (inactive) |
| COC(=O)c1cn(NC(=O)c2cc([N+](=O)[O-])ccc2F)c(=O)c2ccccc12 | 0.46 µM |
| O=C(O)c1ccc(N/N=C/c2ccc3c(c2)OCO3)cc1 | 2.78 µM |
| CCCOCCOC(=O)c1[nH]c2c(c1C)C(=O)CC(c1cc(OC)ccc1OC)C2 (stereo not given) | > 80 µM (inactive) |
| O=C(Nc1ncc(Cc2ccc(SC(F)F)cc2)s1)c1ccc(OC(F)F)cc1 | 7.42 µM |
| CCCCC(=O)NC(c1ccc(Cl)cc1Cl)c1ccc2cccnc2c1O (stereo not given) | 9.87 µM |
| O=S1(=O)C=C(Sc2nc3cc(Cl)ccc3o2)c2ccccc21 | < 0.16 µM |
